One experiment has as its system diabetic mouse. The experiment is described as follows: Blood glucose level after administration to diabetic mice. The format is in vivo, Balb-c strain male mice. Conditions: subcutaneous injection, 1 IU/kg. How it is done:
Six-week old Balb-c strain male mice were used. Streptozotocin was dissolved in a 0.1 mM sodium chloride buffer at a concentration of 30 mg/mL, followed by subcutaneously injecting into the […] at a dosage of 65 mg/kg so as to induce diabetes. The male mice showing a blood glucose level of 470±40 mg/dL over two consecutive days were selected and the experiment was performed. The diabetic mice were starved for 12 hours before the experiment was started.
After the capsules showing the most preferable result were selected from Experimental Example 7 and Comparative Experimental Example 5, respectively, each capsule was orally administered to the diabetic mouse established in Preparative Example 4 and a blood glucose level was measured. […]
AAC (area above the blood glucose level-time curve) is to be numerically expressed the area above the blood glucose level-time curve by using a linear trapezoidal rule. […] F is relative bioavailability of a drug, which is calculated by multiplying the AAC value in case of the oral administration of insulin by the amount of insulin subcutaneously injected, dividing the resulting value by the AAC value in case of the subcutaneous injection of insulin, and dividing the resulting value by the amount of insulin orally administered. […]

The subject of the next experiment is diabetic rats. The experiment can be described thus: Blood glucose lowering effect by dosage for 4 hours in diabetic rats. It counts as in vivo, Male Sprague-Dawley (SD) rats. Conditions: diabetic SD rats, subcutaneous injection (PC, positive control).

Data on one substance can be found in patent US8974819B2, “Sustained-release chitosan capsules comprising chitosan and phytic acid” (priority 2007, dated 2015).

Insulin: the blood glucose level entry is “rapidly decreased” in the experiment with diabetic mouse and “most rapidly decreased” with diabetic rats.
